The record followed here is patent US8993574B2, “Pyrrole antifungal agents” (F2G Ltd, priority 2008, dated 2015).

What all share (format): cell-based
One test has as its system Aspergillus flavus. Briefly: MIC, YAG medium. Particulars: Aspergillus flavus, 24 h, 24 h at 35° C, MIC banded into grades, read-out: MIC grade, A. flavus. Put shortly: (§1)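 DMSO stocks diluted in water as doubling series; spore suspension in YAG (glucose, NH4Cl, yeast extract) added to give 1−2×10^4 cfu/mL. 35° C, 24 h. Growth by OD485; MIC at >70% inhibition, mg/L.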
Test [1] relates to Aspergillus fumigatus AF210. Kind of test: MIC, YAG medium. Particulars: Aspergillus fumigatus, 24 h at 35° C, MIC banded into grades, read-out: MIC grade, A. fumigatus 210. Put shortly:
as §1

Test [2] relates to Aspergillus fumigatus AF293. Briefly: MIC, YAG medium. Particulars: Aspergillus fumigatus, 24 h at 35° C, MIC banded into grades, read-out: MIC grade, A. fumigatus. Put shortly:
as §1

The test system of a further test is Aspergillus niger. Briefly: MIC, YAG medium. The note with it: Aspergillus niger, 24 h at 35° C, MIC banded into grades, read-out: MIC grade, A. niger. In short, it runs like this: as §1
A further test relates to Aspergillus terreus AT49. Briefly: MIC, YAG medium. Particulars: Aspergillus terreus, 24 h at 35° C, MIC banded into grades, read-out: MIC grade, A. terreus 49. Put shortly: as §1
For the next test, the system named is Aspergillus terreus AT4. Briefly: MIC, YAG medium. Particulars: Aspergillus terreus, 24 h at 35° C, MIC banded into grades, read-out: MIC grade, A. terreus. In short, it runs like this: as §1
The subject of test [3] is Aspergillus fumigatus AF210. Kind of test: Checkerboard titration, fractional inhibitory concentration (FIC), RPMI media. The note with it: compound A in combination with caspofungin as compound B. On the procedure: In the checkerboard titration doubling dilutions of compound A (e.g. an antifungal pyrrole compound as defined earlier) are prepared in every row across a microtitre plate and doubling dilutions of compound B (e.g. a second antifungal agent as defined earlier) are prepared in every column down a microtitre plate. The activity of the two compounds in combination can be compared with the activity of each compound alone. In such experiments a narrow range of dilutions can be tested for each compound around the minimum inhibitory concentration (MIC).
As an example, a stock solution of compound A (e.g. 5 mg/ml) can be prepared in a suitable solvent such as DMSO. A stock solution of compound B (e.g. caspofungin) is also prepared (e.g. 2 mg/ml). The stock solution of compound A is diluted (e.g. at a concentration of 1:2000 in water) to 2.5 μg/ml. […]
To determine the combined effect of the compounds the Fractional inhibitory concentration FIC is determined, where FIC is defined as: FIC=FICA+FICB=CA^comb/MICA^alone+CB^comb/MICB^alone where MICA^alone and MICB^alone are the MICs of compounds A and B when acting alone and CA^comb and CB^comb are concentrations of compounds A and B at the isoeffective combinations, respectively. […]

Take `Cc1cc(C)nc(N2CCN(c3ccc(NC(=O)C(=O)c4c(-c5ccccc5)cc(C)n4C)cc3)CC2)c1` [Example 1, 2-(1,5-Dimethyl-3-phenyl-1H-pyrrol-2-yl)-N-{4-[4-(4,6-dimethyl-pyridin-2-yl)-piperazin-1-yl]-phenyl}-2-oxo-acetamide]: the minimum inhibitory concentration (MIC) (in the test on Aspergillus flavus; in test [1]; in test [2]; in the test on Aspergillus niger; in the test with Aspergillus terreus AT49; in the test on Aspergillus terreus AT4) was less than 1 µg/mL in each case. Also, the “FIC (fractional inhibitory concentration)” value in test [3] is listed as 0.67.
